Assay results as given in patent publication US20120122830A1 (King Faisal Specialist Hospital & Research Centre, priority 2008, published 2012).
Read-outs that look alike come from different tables or passages of the source.

Experiments:
[1] = rats and mice; Akwa et al. 2001; cited from earlier work
B104 cells [2] = test: Necrotic effect of fibrillary form of human Aβ1-42 peptide on B104 cells; assay type: cell-based, Rat
Experimental: (§1) Rat B104 neuroblastoma is chosen as the cell culture model due to its neuronal phenotype when grown in serum free medium (Schubert et al. Nature 1974; 249: 224-27). B104 cells are routinely grown in flasks of 75 cm^2 with complete culture medium containing Dulbecco's Modified Eagle Medium (DMEM) supplemented with 2 mM L-glutamine, penicillin G (50 U/ml), streptomycin sulfate (50 μg/ml), 10% fetal calf serum, and 5% horse serum. They are sub-cultured every week and the culture medium is changed every three days. Cultures are maintained at 37° C. in a humidified incubator in 90% air and 10% CO2 atmosphere. For the experiments, the cells are plated at the required density, in serum complete medium for 24 H and then the medium is replaced with a serum free one containing or not the desired treatment.
(§2) Aβ1-42 is obtained from Bachem and prepared in fibril form known to mediate neurotoxicity (Lorenzo et al. Proc Natl Acad Sci USA 1994; 91:12243-47). Aβ1-42 fibrils are produced by dissolving the peptide in double distilled water (ddH2O) to 10 µg/μl, followed by incubation under agitation (300-400 rpm) for one week at 37° C.
Flow cytometry is utilized to look for the percentage of apoptosis or necrosis that reflects the neurotoxic effect of Aβ1-42 as well as the neuroprotective effect of neurosteroids by staining cells with annexin V that has affinity to phosphatidyl serine (PS) (Van Genderen et al. 2006). In normal viable cells, PS is located on the cytoplasmic side of the cell membrane. However, in apoptotic cells, PS is translocated from the inner to the outer leaflets of the plasma membrane where annexin V could bind to PS. Moreover, annexin V can pass through the compromised membrane of necrotic cells and bind to PS in the anterior of the cell (Van Genderen et al. Nat Protoc 2006; 1:363-67).
Cells are seeded in 6 well plates at the required density and grown for 24H. They are then treated according to two procedures: either with specific steroids and then Aβ1-42 or with Aβ1-42 followed by steroids. A kinetic study is performed at 6, 12 or 24 H depending on the concentration of the peptide.
For flow cytometry analysis, cells are washed with PBS and harvested by trypsinization. After centrifugation and resuspension in annexin binding buffer and incubation for 15 min with 5-25 μl of annexin V conjugate, cells are washed with annexin binding buffer and examined by flow cytometry. Data is examined by using appropriate software, and scattergrams are analyzed.

B104 cells [3] = test: Neurotrophic activity: neuronal outgrowth in B104 cells cultured at low density; assay type: cell-based, Rat; details: 5 μM PREGS during 7 days, compared to control cells
Experimental: as §1
For this purpose, […] acid (95:5), washed and incubated for 30 min in PBS containing 2% bovine serum albumin (BSA) to block non specific binding. Immunostaining of B104 cells is performed for 2 H at room temperature (RT) with appropriate dilutions of primary antibodies. Then, cells are rinsed and incubated with sheep anti-mouse IgG antibodies (Sigma) in PBS/BSA, for 2 H at RT. After being washed, the immunostained cells are examined under microscope (a Leica or Zeiss Axiovert 135M microequipped with an epifluorescence system or optical microscope Nikon Labophot 2).

B104 cells [4] = test: Neuroprotection by PREGS against fibrillary human Aβ1-42 peptide toxicity on B104 cells; assay type: cell-based, Rat; design: protection against Aβ1-42 peptide-induced toxicity: dose or concentration left out as unconfirmed
Experimental: as §1
as §2, with “C. […]” for “C.”
For flow cytometry analysis, cells are washed with PBS and harvested by trypsinization. […] Data is examined by using appropriate software, and scattergrams are analyzed.

CC(=O)[C@@H]1CC[C@@H]2[C@H]3CC=C4C[C@H](OS(=O)(=O)O)CC[C@@]4(C)[C@@H]3CC[C@]21C [ent-PREGS]
potency in stimulating memory relative to natural PREGS [1]: more potent

Aβ1-42: fibrillary form of human β-amyloid peptide Aβ1-42, obtained from Bachem
necrosis, dose dependence (B104 cells [2]): significant dose-dependent necrosis
necrotic effect (B104 cells [2]; B104 cells, 10 μM human Aβ1-42 peptide, 6 h, compared to control cells): considerable necrotic effect
time after treatment at which necrotic effect was demonstrated (B104 cells [2]; B104 cells, fAβ1-42): ≤ 6 H
necrosis, dose dependence (B104 cells [2]; B104 cells, increasing from 5 μM to 20 μM of fAβ1-42 peptide): significant dose-dependent necrosis

pregnenolone sulfate [PREGS]
neuronal cell outgrowth (B104 cells [3]): Striking neuronal cell outgrowth
protection against fAβ1-42 peptide-induced toxicity (B104 cells [4]; PREGS at 20 μM, 20 μM fAβ1-42 peptide, observed at 24H, maintained until 96H): able to protect
protection against Aβ1-42 peptide-induced toxicity (B104 cells [4]; observed at 24 h, maintained until 96 h): able to protect
